# Measurements from PubChem BioAssay (NCI).
# Where “and” joins values, the source holds several entries; their conditions need not be identical. Equal values may be shown once.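 All cell lines were grown in 96-well plates and treated with compound for 48 hours. Abbreviation: GI50, concentration required for 50% inhibition of growth. TGI denotes the concentration required for complete inhibition of growth.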
# Key:
# Test in all cases: growth of human tumour cells (NCI), 48 h
# OVCAR-4 ovarian = system: OVCAR-4 ovarian
# HS 578T breast = system: HS 578T breast
# HL-60(TB) leukemia = system: HL-60(TB) leukemia
# HT29 colon = system: HT29 colon
# MDA-MB-231 breast = system: MDA-MB-231 breast
# IGROV1 ovarian = system: IGROV1 ovarian
# DU-145 prostate = system: DU-145 prostate
# KM12 colon = system: KM12 colon
# MOLT-4 leukemia = system: MOLT-4 leukemia
# HCT-15 colon = system: HCT-15 colon
# SK-OV-3 ovarian = system: SK-OV-3 ovarian
# SN12C renal = system: SN12C renal
# TK-10 renal = system: TK-10 renal
# PC-3 prostate = system: PC-3 prostate
SMILES,TGI (OVCAR-4 ovarian) [µM],TGI (HS 578T breast),TGI (HL-60(TB) leukemia),TGI (HT29 colon),TGI (MDA-MB-231 breast),TGI (IGROV1 ovarian) [µM],TGI (DU-145 prostate) [µM],TGI (KM12 colon),TGI (MOLT-4 leukemia) [µM],TGI (HCT-15 colon) [µM],TGI (SK-OV-3 ovarian) [µM],TGI (SN12C renal),TGI (TK-10 renal) [µM],TGI (PC-3 prostate),GI50 (HS 578T breast),GI50 (DU-145 prostate),GI50 (KM12 colon),GI50 (MOLT-4 leukemia),GI50 (PC-3 prostate)
CO/C(=N/N1CC1C(F)(F)F)c1ccncc1 (stereo not given),> 100,> 100 µM,> 100 µM,> 100 µM,> 100 µM,> 100,> 100,> 100 µM,> 100,> 100,> 100,> 100 µM,,,,,,,
O=S(=O)(O)c1cc(S(=O)(=O)O)c2c(N=Nc3cccc4ccccc34)c(O)ccc2c1,> 100,> 100 µM,> 100 µM,> 100 µM,> 100 µM,> 100,> 100,> 100 µM,> 100,> 100,> 100,> 100 µM,> 100,> 100 µM,,,,,
O=C(O)c1ccc(Nc2ccnc3cc(Cl)ccc23)cc1O,> 100,> 100 µM,> 100 µM,> 100 µM,> 100 µM,> 100,> 100,> 100 µM,> 100,> 100,> 100,> 100 µM,> 100,> 100 µM,,,,,
O=C(Sc1c(-c2ccccc2)c(=O)n(-c2ccccc2)c(=S)n1-c1ccccc1)c1ccc(Cl)cc1,> 100,> 100 µM,> 100 µM,> 100 µM,> 100 µM,> 100,> 100,> 100 µM,> 100,> 100,> 100,> 100 µM,> 100,,,,,,
COC(=O)[C@H](CCSC)NC(=O)c1ccc(CNC(=O)/C=C/c2cccc(Oc3ccccc3)c2)cc1,> 90.6,> 100 µM,,> 100 µM,> 83.5 µM,> 73.2,> 100,> 100 µM,33.4,> 100,> 100,> 100 µM,> 87,> 100 µM,,,,,
O=C1CC2[C@@H](N3CCCC3)CCC(N1Cc1ccccc1)C2(O)O (stereo not given in full),,> 100 µM,> 100 µM,> 100 µM,> 100 µM,> 100,> 100,> 100 µM,> 100,> 100,> 100,> 100 µM,> 100,> 100 µM,,,,,
O=C(O)C(Cc1ccc(O)cn1)NC(=O)C(F)(F)F (stereo not given),,> 100 µM,> 100 µM,> 100 µM,> 100 µM,> 100,> 100,> 100 µM,,> 100,,> 100 µM,> 100,> 100 µM,,,,,
Cc1cc(C)c2c(=O)cc(-c3ccc(Cl)cc3)[nH]c2n1,> 100,> 100 µM,> 83 µM,> 48.5 µM,> 51.8 µM,> 100,> 100,> 100 µM,> 100,> 100,> 100,> 100 µM,> 100,> 50.7 µM,,,,,
O=C1CN(c2cccc(C(F)(F)F)c2)C(=O)CN1NCNN1CC(=O)N(c2cccc(C(F)(F)F)c2)CC1=O,,> 100 µM,> 100 µM,> 100 µM,> 100 µM,> 100,,> 100 µM,> 100,> 100,> 100,> 100 µM,> 100,> 100 µM,,,,,
COC(=O)c1cc(C)ccc1/C=C1\Cc2cc(C)c(C)cc2C1=O,> 100,> 100 µM,> 100 µM,> 100 µM,> 100 µM,> 100,> 100,> 100 µM,> 100,> 100,,> 100 µM,> 100,> 100 µM,,,,,
Cn1c(=O)n(-c2c3ccccc3c(Cl)c3ccccc23)n(C(C)(C)C)c1=O,,> 100 µM,> 100 µM,> 100 µM,> 100 µM,> 100,> 100,> 100 µM,> 100,> 100,> 100,> 100 µM,> 100,> 100 µM,,,,,
CC1(C)C(O)c2ccccc2OC1N1CCN(C2Oc3ccccc3C(O)C2(C)C)CC1 (stereo not given),> 100,> 100 µM,> 100 µM,> 100 µM,> 100 µM,> 100,> 100,> 100 µM,> 100,> 100,> 100,> 100 µM,,> 100 µM,,,,,
CC1OC(OC2C(OC(=O)[C@]34CCC(C)(C)C[C@H]3C3=CC[C@@H]5[C@@]6(C)CC[C@H](OC7OC(C(=O)O)C(O)C(O)C7O)C(C)(C)[C@@H]6CC[C@@]5(C)[C@]3(C)CC4)OCC(O)C2O)C(O)C(O)C1OC1OCC(O)C(O)C1O (stereo not given in full),> 100,> 100 µM,73.5 µM and 45.8 µM,> 100 µM and 30.1 µM,60.4 µM and 35.4 µM,> 100,> 100,> 100 µM and 34 µM,> 100,> 100,> 100,50.5 µM and 40.5 µM,,> 100 µM and 74.7 µM,> 100 µM and 45.5 µM,> 100 µM and 45.9 µM,37.9 µM and 17.1 µM,> 100 µM and 36.9 µM,66.9 µM and 25.2 µM
CN(CCc1ccc(Br)cc1)CCN1CCCCC1,> 100,52.6 µM,,38.8 µM,> 100 µM,> 100,> 100,41.9 µM,> 100,> 100,> 100,> 100 µM,> 100,> 100 µM,,,,,
CCCCCCCCCCCCCCCCOP(=O)(O)OP(=O)(O)OCC1OC(n2ccc(N)nc2=O)CC1O (stereo not given),> 100,> 100 µM,> 100 µM,> 100 µM,> 100 µM,> 100,,> 100 µM,> 100,> 100,> 100,> 100 µM,> 100,> 100 µM,,,,,
CCOC(=O)Cc1ccc(Nc2nc3cc(C(F)(F)F)ccc3nc2C(=O)OCC)cc1,> 100,85.1 µM,> 100 µM,> 100 µM,,> 100,> 100,> 100 µM,> 100,> 100,> 100,> 100 µM,> 100,> 100 µM,,,,,
COc1ccc(C)c2c1N[C@](C)([C@]1(C)Nc3c(OC)ccc(C)c3C1=O)C2=O,> 100,> 100 µM,,> 100 µM,> 100 µM,> 100,> 100,> 100 µM,> 100,> 100,> 100,> 100 µM,,> 100 µM,,,,,

SMILES,TGI (OVCAR-4 ovarian) [µM],TGI (HS 578T breast),TGI (HL-60(TB) leukemia),TGI (HT29 colon),TGI (MDA-MB-231 breast),TGI (IGROV1 ovarian) [µM],TGI (DU-145 prostate) [µM],TGI (KM12 colon),TGI (MOLT-4 leukemia) [µM],TGI (HCT-15 colon) [µM],TGI (SK-OV-3 ovarian) [µM],TGI (SN12C renal),TGI (TK-10 renal) [µM],TGI (PC-3 prostate),GI50 (HS 578T breast),GI50 (DU-145 prostate),GI50 (KM12 colon),GI50 (MOLT-4 leukemia),GI50 (PC-3 prostate)
Cc1cc(S(=O)(=O)Nc2nc(N)n(-c3cnc4ccccc4n3)n2)c(S)cc1Cl,> 100,> 100 µM,> 100 µM,> 100 µM,> 100 µM,> 100,> 100,> 100 µM,,> 100,> 100,> 100 µM,> 100,> 100 µM,,,,,
CCCSc1cc(Cl)c(C)cc1S(=O)(=O)n1cc[nH]c1=O,> 100,> 100 µM,,> 100 µM,> 100 µM,> 100,> 100,> 100 µM,> 100,> 100,> 100,> 100 µM,> 100,> 100 µM,,,,,
Cc1ccc2c(c1)C(=O)/C(=C1/CCc3ccc(C)cc31)C2,> 100,> 100 µM,> 100 µM,> 100 µM,> 100 µM,> 100,> 100,> 100 µM,> 100,> 100,> 100,> 100 µM,> 100,,,,,,
CCOC(=O)CSc1nc2ccccc2c(=O)n1N,> 100,> 100 µM,,> 100 µM,> 100 µM,> 100,> 100,> 100 µM,> 100,> 100,,> 100 µM,> 100,> 100 µM,,,,,
O=C1CCC(=O)N1CNc1ccc2c(c1)Sc1ccccc1O2,> 100,> 100 µM,54.8 µM,54.7 µM,> 100 µM,> 100,> 100,> 100 µM,> 100,> 100,,76.1 µM,> 100,> 100 µM,,,,,
Cc1nnc(Nc2ccc(Cl)cc2)o1,> 10,> 10 µM,> 10 µM,> 10 µM,> 10 µM,> 10,> 10,> 10 µM,,> 10,> 10,> 10 µM,> 10,> 10 µM,,,,,
C=C(Cl)C(C)(Cl)CCC(Cl)C(C)(C)Cl (stereo not given),> 100,> 100 µM,> 100 µM,> 100 µM,83.3 µM,> 100,> 100,> 100 µM,66.1,,> 100,> 100 µM,> 100,> 100 µM,,,,,
CC1=CC(C)C(C)N(CCNC(=O)Nc2ccccc2)c2ccccc21 (stereo not given),> 100,30.3 µM,,32.1 µM,31.1 µM,> 100,> 100,57.9 µM,64.4,72,65.1,> 100 µM,78.2,69.2 µM,,,,,
O=C1O/C(=C\c2ccc(O)c(Br)c2)C(c2ccc(O)cc2)=C1Cl,> 100,> 100 µM,> 100 µM,> 100 µM,,> 100,> 100,> 100 µM,> 100,> 100,> 100,,> 100,> 100 µM,,,,,
O=[N+]([O-])C(/C(Cl)=C(/Cl)N1CCCCC1)=C1\NCCO1,> 100,> 100 µM,,> 100 µM,> 100 µM,,> 100,> 100 µM,> 100,> 100,> 100,> 100 µM,,> 100 µM,,,,,
CCC1(O)CC(OC2CC(N(C)C)C(OC3CC(O)C(OC4OC(C)C(=O)C=C4N)C(C)O3)C(C)O2)c2c(O)c3c(c(O)c2C1C(=O)OC)C(=O)c1cccc(O)c1C3=O (stereo not given),,0.366 µM and 1.47 µM,0.108 µM,0.215 µM,0.296 µM,,0.0461,0.2 µM,,1.17,,1.13 µM,0.0778,0.294 µM and 0.0742 µM,,,,,
COc1ccc(-c2oc3c(CC(=O)O)cccc3c(=O)c2OC)cc1,,> 100 µM,> 100 µM,> 100 µM,> 100 µM,> 100,> 100,,> 100,,> 100,> 100 µM,> 100,> 100 µM,,,,,
CNC(=O)Nc1cc2c3c(c1)CCCN3CCC2,> 10,> 10 µM,,> 10 µM,> 10 µM,> 10,> 10,> 10 µM,,> 10,> 10,> 10 µM,> 10,> 10 µM,,,,,
COc1cc(-c2c[nH]c3ccccc23)nc(-c2c[nH]c3ccccc23)n1,28.8,68 µM,12.9 µM,13.4 µM,8 µM,13.6,23.9,16.2 µM,15.3,22.3,22.8,,20.6,9.06 µM,,,,,
O=C(OCc1ccccc1)N1CCNCCNCC1,> 100,> 100 µM,> 100 µM,> 100 µM,> 100 µM,> 100,> 100,> 100 µM,> 100,> 100,,> 100 µM,> 100,> 100 µM,,,,,
c1ccc(COCC23CCN(Cc4ccccc4)C(CC(OCc4ccccc4)C2)S3)cc1 (stereo not given),> 100,> 100 µM,45.4 µM,> 100 µM,> 100 µM,> 100,> 100,> 100 µM,69.9,> 100,> 100,> 100 µM,,> 100 µM,,,,,
CC(=O)OCC1OC(n2c(C)c(N=Nc3ccc(C)cc3)c(C)c(C#N)c2=S)C(OC(C)=O)C(OC(C)=O)C1OC(C)=O (stereo not given),> 100,74.7 µM,> 100 µM,> 100 µM,> 100 µM,> 100,> 100,> 100 µM,> 100,,> 100,> 100 µM,> 100,> 100 µM,,,,,
